# Like-named read-outs stand apart in the source and are kept apart here. Marks after values point to notes of the source that are not given here.
# Legend:
# [1] = system: CHO-K1 cells (hprt gene); experiment: CHO/HPRT mutation assay; assay type: cell-based, Chinese hamster; settings: 3MC 2 µg/ml
# [2] = system: CHO-K1 cells (hprt gene); experiment: CHO/HPRT mutation assay; assay type: cell-based, Chinese hamster; settings: Table 4, With S9; lilial 500 µM, 3MC 2 µg/ml
# Method: The test with metabolic activation was performed as described in the OECD protocol, the ASTM standard[23] and other protocols[30],[31] and publications. For the test, cryopreserved CHO-K1 cells after the mutant cleansing were used. Mutant cleansing was performed according to[30], i.e. cells were cultivated three days in HAT medium, one day in HT medium and then frozen.
# One passage after the thawing, 1 × 10^6 cells were seeded in 60 mm cultivation plates as described in[32]. […] The final concentration of the solvent, DMSO, was 1%. […] EMS at final concentration 2 mM as recommended in[31] served as a positive control. 3-MC at final concentration […][22] served as a positive control for metabolic activation. 1% DMSO was used as a VC. Sole cultivation medium served as a negative control (NC). After 4 h, the medium with tested substances was removed, plates were washed with PBS and fresh medium with 10% FBS was added.
# During the expression period (1 week), the cells on all 60 mm plates were passaged once. On day 8, cells were trypsinized, resuspended, counted and 2 × 10^5 cells of each plate were seeded on 60 mm plates in triplicates in the presence of a selective agents, 6-TG (30 µM) as described in[32]. […] 300 cells without the selective agent were seeded in a parallel to evaluate plating efficiency (PE). On day 15, the plates were washed with PBS, cells were fixed with ice cold methanol for 10 min and stained with 0.05% crystal violet in water for 30 min[33]. After washing with water, formed colonies were counted using Schuett Count (Schuett-biotec, Göttingen, Germany). Calculations were done as described in[29]. PE was calculated according to a general Eq. 1. Particular PE at selective conditions was calculated according to Eq. 2. Particular PE at non-selective conditions was calculated according to Eq. 3. Mutation frequency (MF) was calculated according to Eq. 4.1 PE=numberofcoloniesformed/numberofcellsplated 2 PEselective=numberofmutantcoloniesNMC/200,000 3 PEnon-selective=numberofcoloniesformed/300 4 MF=PEselectiveconditions/PEnon-selectiveconditions
# [3] = system: androgen receptor; experiment: Androgenic activity, transactivation luciferase assay in MDA-kb2; settings: MDA-kb2, positive control
# Text: Results were expressed as fold induction (FI), i.e. fold increase compared to vehicle control. According to EPA[28], FI of positive control should be above 4 to meet the performance standard.
# [4] = system: CHO-K1 cells; assay type: cell-based, Chinese hamster; settings: lilial 100 µM, PC 30 μM; for Fold, mean (γH2AX over negative control): above 1.5 indicates genotoxicity
# Method: (§1) Briefly, HeLa and CHO-K1 cells were seeded at a concentration of 1 × 10^5 cells/ml into the 96-well plates. CHO-K1 cells were used for comparison with HPRT test. HeLa cells were recommended by the manufacturer of the kit. After 24 h, cells were rinsed with PBS and cultivation medium (“Cell lines” Section) without ATB, with a reduced content of FBS (5%) was added. 30 µM valinomycin (in DMSO) was used as a positive control Samples were applied in the presence of non-toxic sample concentrations, i.e. 100 µM either with or without S9 mix. […] Cells were photographed using a fluorescence microscope (Olympus IX83); filters: DAPI (500 ms) and Cy3 (500 ms). Bioimage analysis in ImageJ software was performed as described previously.
# [5] = system: HeLa cells; experiment: γH2AX biomarker-based genotoxicity assay, HeLa; assay type: cell-based, human; settings: PC 30 μM; for Fold, mean (γH2AX over negative control): above 1.5 indicates genotoxicity
# Method: as §1
# [6] = system: RPTEC/TERT1 cells; experiment: Nephrotoxicity, RT-qPCR of kidney damage biomarkers; assay type: cell-based, human; settings: 100 µM, 48 h, normalized to GAPDH and ACTB
# Method: RPTEC/TERT1 cells were seeded at a concentration of 2 × 10^5 cells/ml in ProxUp2 medium into 60 mm Petri dishes. After 24 h, the cells were washed with PBS and […] metabolites (100 μM) were applied in fresh ProxUp2 medium. The cells were incubated with samples for 48 h, after which the cells were washed with PBS and dishes were frozen in - 160 °C. The RNA was isolated using RNeasy Plus Mini Kit (Qiagen, Hilden, Germany). The RNA concentration and purity was determined with NanoDrop One (ThermoFisher Scientific) spectrophotometr. The cDNA synthesis was performed from 0.1 μg of total RNA with an iScript Reverse Transcription Supermix (Bio-Rad, Hercules, California, USA). Quantitative real-time PCR (qPCR) was performed using the qPCR Bio-Rad C100 Touch System (Bio-Rad) with a 96-well block. The reaction mixture consisted of 1 μl of specific 20 × PrimePCR Assay (Bio-Rad), 10 μl of 2 × SsoAdvance Universal Supermix (Bio-Rad), 2 μl of cDNA sample, 7 μl of nuclease-free water. The final reaction volume was 20 μl. […] Cycling parameters were: initial denaturation at 95 °C for 2 min, followed by 40 cycles of 95 °C for 5 s and 60 °C for 30 s. Fluorescence values were acquired after each extension phase. Samples were analyzed in triplicate, and samples with a standard deviation of duplicates > 0.2 Ct were re-analyzed. A non-template control containing nuclease-free water instead of cDNA as well as non-RT control containing purified RNA without reverse transcription was used. The real-time PCR study followed the MIQE guidelines. Relative transcript levels of the estimated genes in the cell lines were compared using the software CFX Maestro Software 2.3 (Bio-Rad).
# [7] = parameters: method as in PMID 32763837; settings: children and adolescents in Germany ref 40; cited from earlier work
# [8] = system: rats; settings: rats ref 41; cited from earlier work
# [9] = system: MCF-7 human breast cancer cells; settings: lilial 100 µM, estrogen 10 nM; unaffected control 1.8 doublings ref 8; cited from earlier work
# [10] = Table 4, Without S9, lilial 500 µM
compound,measurement,setting,value
"Cc1ccc2cc3c(ccc4ccccc43)c3c2c1CC3 [3MC, 3-methylcholanthren]",MF (/106) mutation frequency,"[1]; Table 4, With S9, lilial 500 µM",152 ± 14 /106
same,MF (/10^6) mutation frequency,"[1]; Table 4, Without S9",25 ± 31 /10^6
same,NMC (number of mutant colonies),[1]; [10],3 ± 4
same,PE (%) plating efficiency,[1]; [10],66 ± 3%
same,NMC (number of mutant colonies),[2],17 ± 2
same,PE (%) plating efficiency,[2],55 ± 4%
"C[C@]12CCC(=O)C[C@@H]1CC[C@@H]1[C@@H]2CC[C@]2(C)[C@@H](O)CC[C@@H]12 [DHT, dihydrotestosterone, reference compound]",Concentration from which fold induction (FI) significantly increased,[3],≥ 0.5 nM
"CC(C)[C@@H]1NC(=O)[C@H](C)OC(=O)[C@@H](C(C)C)NC(=O)[C@@H](C(C)C)OC(=O)[C@H](C(C)C)NC(=O)[C@H](C)OC(=O)[C@@H](C(C)C)NC(=O)[C@@H](C(C)C)OC(=O)[C@H](C(C)C)NC(=O)[C@H](C)OC(=O)[C@@H](C(C)C)NC(=O)[C@@H](C(C)C)OC1=O [PC, valinomycin]",MoA (mean fluorescence values over area of the nuclei),"[4]; CHO-K1, 4h_S9",0.99
same,"RA (%), mean (relative area of nuclei)","[4]; CHO-K1, 4h_S9",90.8%
same,"Fold, mean (γH2AX over negative control)","[4]; CHO-K1, 4h_S9",1.35
same,MoA (mean fluorescence values over area of the nuclei),"[4]; CHO-K1, 4 h, without S9",1.14
same,"RA (%), mean (relative area of nuclei)","[4]; CHO-K1, 4 h, without S9",75.3%
same,"Fold, mean (γH2AX over negative control)","[4]; CHO-K1, 4 h, without S9",1.45
same,MoA (mean fluorescence values over area of the nuclei),"[4]; CHO-K1, 24 h",5.26
same,"RA (%), mean (relative area of nuclei)","[4]; CHO-K1, 24 h",48.5%
same,"Fold, mean (γH2AX over negative control)","[4]; CHO-K1, 24 h",4.43
same,MoA (mean fluorescence values over area of the nuclei),"[5]; 4h_S9, lilial 100 µM",0.29**
same,"RA (%), mean (relative area of nuclei)","[5]; 4h_S9, lilial 100 µM",97.8%
same,"Fold, mean (γH2AX over negative control)","[5]; 4h_S9, lilial 100 µM",2.94
same,MoA (mean fluorescence values over area of the nuclei),"[5]; 4 h, without S9, lilial 100 µM",0.13*
same,"RA (%), mean (relative area of nuclei)","[5]; 4 h, without S9, lilial 100 µM",95.8%
same,"Fold, mean (γH2AX over negative control)","[5]; 4 h, without S9, lilial 100 µM",2.63
same,MoA (mean fluorescence values over area of the nuclei),"[5]; 24 h, lilial 100 µM",0.55*
same,"RA (%), mean (relative area of nuclei)","[5]; 24 h, lilial 100 µM",101.5%
same,"Fold, mean (γH2AX over negative control)","[5]; 24 h, lilial 100 µM",24.03
CN(C)[C@@H]1C(O)=C(C(N)=O)C(=O)[C@@]2(O)C(O)=C3C(=O)c4c(O)cccc4[C@@](C)(O)[C@H]3C[C@@H]12 [Tetracycline],"Relative fold gene expression, CLU",[6],4.09*
same,"Relative fold gene expression, CST3",[6],1.64*
same,"Relative fold gene expression, HMOX",[6],4.93**
same,"Relative fold gene expression, IL6",[6],1.70
same,"Relative fold gene expression, IL8",[6],1.19
same,"Relative fold gene expression, IPO8",[6],1.41**
same,"Relative fold gene expression, TIMP1",[6],1.31
CC(Cc1ccc(C(C)(C)CO)cc1)C(=O)O (stereo not shown) [hydroxy-lysmerylic acid],Geometric mean concentration in urine,[7],< 0.4 µg/L
CC(Cc1ccc(C(C)(C)C)cc1)C(=O)O (stereo not shown) [lysmerylic acid],Geometric mean concentration in urine,[7],< 0.2 µg/L
CC(C)(C)c1ccc(C(=O)O)cc1 [p-tert-butylbenzoic acid],Geometric mean concentration in urine,[7],10.21 µg/L
same,Effects on male reproduction,[8],adverse effects on male reproduction
estrogen [reference compound],Cell doublings,[9],5.2 doublings

# Source: publication PMC10613275 (Scientific Reports, 2023)
